Reference: patent US6787527B1, “Methods of preventing and treating HIV infection” (Duke University, priority 1994, dated 2004)

Assays:
[1] = target: T1, recombinant CD4 with gp120 from HIV-1-IIIB (UniProt P01730+P04578); assay: CD4-gp120 binding, gp120 from HIV-1-IIIB
T1 construct: gp120 from HIV-1-IIIB
Protocol: (§1) Cobalamins were incubated with CD4 and gp120 from HIV-1-IIIB in wells of microtiter wells, and binding was assessed as previously described. […] Serum from an HIV-1-infected person containing anti-gp120 antibody served as the “positive control”.
(§2) To determine whether cobalamins modified the binding of HIV-1 gp120 to CD4, the abilities of CN-Cbl, OH-Cbl, Me-Cbl, and Ado-Cbl to inhibit binding of recombinant CD4 with gp120 from HIV-1-IIIB or HIV-1-MN were tested (FIG. 2). No inhibition of binding was observed.

[2] = target: T2, recombinant CD4 with gp120 from HIV-1-MN (UniProt P01730+P05877); assay: CD4-gp120 binding, gp120 from HIV-1-MN
T2 construct: recombinant CD4 with gp120 from HIV-1-IIIB or HIV-1-MN
Protocol: as §1, §2

[3] = target: T3, RT (Human immunodeficiency virus type 1 group M subtype B, UniProt P04585); assay: RT activity in cell-free medium; assay type: biochemical, HIV-1; details: 1 to 1000 μM added to cell-free medium containing RT
T3 construct: added to cell-free medium containing RT

[4] = system: HIV-1-BaL; assay: HIV-1 infection of monocytes / mononuclear phagocytes (Mo, Mac), supernatant medium RT activity; assay type: cell-based; details: for inhibition of productive HIV-1 infection: Mo, Mac, added at viral inoculation and left in throughout culture
Protocol: (§3) Monocytes and lymphocytes were isolated and cultured as previously described (J. Exp. Med. 174:1477 (1991)). Briefly, monocytes were isolated by sequential ficoll-sodium diazotrate and Percoll gradients with subsequent adherence to cultureware plastic, and then cultured in Dulbecco's modified Eagle medium (GIBCO, Grand Islands, N.Y.) with 10% unheated human serum. Lymphocytes were from ficoll-sodium diazotrate gradients, and were cultured with anti-CD3/anti-CD28 antibody and subsequently IL-2. Reverse transcription (RT) was measured as described (Weinberg et al, J. Exp. Med. 174:1477 (1991)) using a phosphoimager device for quantification. Leukemia cell lines Jurkat, CEM, HL-60, and U937 were obtained from American Type Culture Collection (Rockville, Md.). The cells were cultured in RPMI-1640 with 10% fetal bovine serum (Hyclone, Logan, Utah). Cobalamins were obtained from Sigma Chemical Company (St. Louis, Mo.). The cobalamins had extremely low endotoxin content, as determined by Limulus amebocyte lysate testing (Whitaker Bioproducts, Walkerville, Md.). When tested as a 3 mM solution, the cobalamins had less than 0.25 EU/ml. Cobalamins were not toxic for Mo, Mac, Lym, and leukemia cell line cells, as determined by morphology under phase microscopy, Wright staining of methanol-fixed cells, trypan blue exclusion, and thymidine incorporation were carried out in accordance with standard techniques.
Monocytes were inoculated at time zero with HIV-1-Bal (Weinberg et al, J. Exp. Med. 174:1477 (1991)) (MOI ˜0.1)and cultured with the designated cobalamin for 7-14 days. Supernatant medium RT was then measured (Weinberg et al, J. Exp. Med. 174:1477 (1991)). Results are provided as RT activity (mean±SEM of triplicates)and are derived from one experiment.

[5] = system: HIV-1-IIIB; assay: HIV-1 infection of PBL, supernatant medium RT activity; assay type: cell-based; details: added at viral inoculation and left in throughout culture
Protocol: as §3
(§4) PBL were inoculated with HIV-1-IIIB (MOI ˜0.1) and cultured with the designated cobalamin for 15-25 days. Supernatant medium RT was then measured. Results are provided as RT activity (mean±SEM of triplicates) and are derived from one experiment.

[6] = system: HIV-1-IIIB; assay: HIV-1 infection of leukemia cell lines Jurkat, CEM, HL-60, U937, supernatant medium RT activity; assay type: cell-based; details: HL-60, U937 cell lines
Protocol: as §3
as §4, with “Cells of the T lymphoblast cell line Jurkat and CEM, the myeloblast cell line HL-60, and the monoblast cell line U937” for “PBL”, “cultured for” for “cultured”, “10-20” for “15-25”

[7] = system: U1 cells and OM-10.1 cells (HIV-1 integrated provirus); assay: TNF- or PMA-induced viral RT expression in latently-infected leukemia cells; assay type: cell-based, human; details: 250 μM; 500 U/ml TNF or 80 nM PMA; U1 and OM-10.1 cells
Protocol: To determine whether OH-Cbl would inhibit the ability of latently-infected leukemia cells to produce RT after stimulation with tumor necrosis factor (TNF) or phorbol myristate acetate (PMA), U1 (U937 monoblastic cell line with HIV-1 integrated provirus) cells (NIH AIDS Repository) and OM-10.1 cells (HL-60 myelobastic cell line with HIV-1 integrated provirus) (Dr. Clay Smith, Duke University, Durham, N.C.) were treated with 500 U/ml TNF or 80 nM PMA (with or without 250 μM OH-Cbl).

[8] = humans, 5 to 7 grams by bolus intravenous infusion; cited from earlier work
[9] = system: HIV-1-BaL; assay: Syncytium (multinucleated giant cell) formation in HIV-1-inoculated monocytes; assay type: cell-based; details: 67 μM, HIV-1-BaL MOI ~0.1, 14 days
Protocol: OH-Cbl, Me-Cbl, Ado-Cbl, and CN-Cbl were not toxic for Mo, Mac, PBL, or cells of the human leukemia cell lines Jurkat, CEM, HL-60, or U937 at concentrations ≦600 μM. When added to the cultures of Mo, Mac, or PBL at the time of viral inoculation on day zero and left in throughout the culture period, there was potent inhibition of productive infection as judged by supernatant medium RT activity (see FIG. 1). Further evidence of the cobalamin inhibitory effect was derived from studies examining syncytium formation. Populations of monocytes not inoculated with virus were generally mononuclear, while those inoculated with HIV-1-BaL (MOI ˜0.1) cultured (14 days) without OH-Cbl (67 μM) had numerous multinucleated giant cells (syncytium).

[10] = system: Mo, Mac, PBL, human leukemia cell lines Jurkat, CEM, HL-60, U937; assay: Toxicity for cells (morphology, Wright staining, trypan blue exclusion, thymidine incorporation); assay type: cell-based; details: concentrations ≦600 μM
Protocol: as §3, with “When tested as a 3 mM solution, the cobalamins had less than 0.25 EU/ml.” left out

C/C1=C2/[N-]C([C@H](CC(N)=O)[C@@]2(C)CCC(=O)NC[C@@H](C)OP(=O)([O-])O[C@H]2[C@@H](O)[C@@H](n3cnc4cc(C)c(C)cc43)O[C@@H]2CO)[C@]2(C)N=C(/C(C)=C3N=C(/C=C4N=C1[C@@H](CCC(N)=O)C\4(C)C)[C@@H](CCC(N)=O)[C@]\3(C)CC(N)=O)[C@@H](CCC(N)=O)[C@]2(C)CC(N)=O.[CH2-][C@H]1O[C@@H](n2cnc3c(N)ncnc32)[C@@H](O)[C@@H]1O.[Co+3] [Ado-Cbl, adencobalamin]
inhibition of CD4-gp120 binding [1]: No inhibition
inhibition of CD4-gp120 binding [2]: No inhibition
inhibition of RT activity [3]: inhibition of RT activity was not observed
inhibition of productive HIV-1 infection [4]: inhibited
inhibition of productive HIV-1 infection [5]: inhibited
inhibition of HIV-1 infection [6]: did not inhibit

C/C1=C2/[N-][C@H]([C@H](CC(N)=O)[C@@]2(C)CCC(=O)NC[C@@H](C)OP(=O)([O-])O[C@H]2[C@@H](O)[C@@H](n3cnc4cc(C)c(C)cc43)O[C@@H]2CO)[C@]2(C)N=C(/C(C)=C3N=C(/C=C4N=C1[C@@H](CCC(N)=O)C\4(C)C)[C@@H](CCC(N)=O)[C@]\3(C)CC(N)=O)[C@@H](CCC(N)=O)[C@]2(C)CC(N)=O.[CH3-].[Co] [Me-Cbl]
inhibition of CD4-gp120 binding [1]: No inhibition
inhibition of CD4-gp120 binding [2]: No inhibition
inhibition of RT activity [3]: inhibition of RT activity was not observed
inhibition of productive HIV-1 infection [4]: inhibited
inhibition of productive HIV-1 infection [5]: inhibited
inhibition of HIV-1 infection [6]: did not inhibit

C/C1=C2/[N-][C@H]([C@H](CC(N)=O)[C@@]2(C)CCC(=O)NC[C@@H](C)OP(=O)([O-])O[C@H]2[C@@H](O)[C@@H](n3cnc4cc(C)c(C)cc43)O[C@@H]2CO)[C@]2(C)N=C(/C(C)=C3N=C(/C=C4N=C1[C@@H](CCC(N)=O)C\4(C)C)[C@@H](CCC(N)=O)[C@]\3(C)CC(N)=O)[C@@H](CCC(N)=O)[C@]2(C)CC(N)=O.[Co+3].[OH-] [OH-Cbl, hydroxocobalamin]
inhibition of expression of induced viral RT [7]: did not inhibit
inhibition of CD4-gp120 binding [1]: No inhibition
resultant serum levels [8]: μM to mM
side effects [8]: minimal
inhibition of CD4-gp120 binding [2]: No inhibition
inhibition of RT activity [3]: inhibition of RT activity was not observed
inhibition of HIV-1 infection ([4]; Mo incubated simultaneously with 250 μM and HIV-1 for 4 hours, washed, cultured 10 days): no inhibition
inhibition of subsequent RT production ([4]; Mo inoculated and cultured 6 days, washed, then cultured with 250 μM): no inhibition
inhibition of RT ([4]; Mo pretreated with 250 μM for 24 hours, washed, then inoculated with HIV-1-BaL): approximately 80%
inhibition of productive HIV-1 infection [4]: inhibited
inhibition of productive HIV-1 infection [5]: inhibited
inhibition of HIV-1 infection [6]: did not inhibit
inhibition of syncytium formation [9]: 100%
toxicity for cells [10]: not toxic

cyanocobalamin [CN-Cbl]
inhibition of CD4-gp120 binding [1]: No inhibition
inhibition of CD4-gp120 binding [2]: No inhibition
inhibition of RT activity [3]: inhibition of RT activity was not observed
inhibition of productive HIV-1 infection [4]: little or no inhibitory activity
inhibitory effect in vitro ([4]; in vitro, summary statement): little or no inhibitory effect
inhibition of productive HIV-1 infection [5]: little or no inhibitory activity
